Reference: PMC5034043 (The Journal of Biological Chemistry, 2016)
Where two headings read alike, the source gives them in different places.

System: T1, synaptosomal proteome
T1 construct: from tissue; host or cells: brain synaptosomes of male C57/B6 mice
Assay type: binding, mouse
Method: Synaptosomes were resuspended to 1 mg of protein/ml in HEPES buffer medium (in mM: 140 NaCl, 5 KCl, 5 NaHCO3, 1.2 NaH2PO4, 1 MgCl2, 10 glucose, and 10 HEPES (pH 7.4)). […] The samples were allowed to equilibrate for 5 min before being transferred to a parafilm-sealed 1-mm path length quartz cuvette. The sample was then irradiated for 20 min at a peak bandwidth of 350 nm (Rayonet RPR-3500 lamp) ∼6 cm from the light source. Non-irradiated samples were left in the dark at ambient temperature (22–25 °C) for 20 min. All remaining procedures were conducted with restricted light exposure.
To 750 μg of photolabeled or control synaptosome samples, 40 μl of 10% SDS and 2 μl of 5 mM DTT in water were added. Samples were then vortexed, heated for 10 min at 65 °C, and then briefly cooled. Final concentrations of 150 μM azide-biotin (Click Chemistry Tools), 2 mM tris(3-hydroxypropyltriazolylmethyl)amine (Sigma), 1 mM ascorbic acid (Sigma), and 1 mM CuSO4·5H2O (Sigma) were added to each sample and vortexed vigorously. The samples were left in the dark at ambient temperature (22–25 °C) for 1 h with mild agitation. Directly to each sample 4× volume chilled methanol, 1.5× chilled chloroform, and 3× chilled double distilled H2O were added. Samples were vortexed vigorously and centrifuged at 1,400 × g for 30 min at 4 °C. Both liquid layers were carefully removed, and the protein pellet was washed with 2 ml of 1:1 (v/v) chilled methanol/chloroform. Samples were centrifuged at 3,500 × g for 30 min at 4 °C. Protein pellets were briefly air-dried before further processing.
750 μg of biotin-conjugated protein sample was resuspended in 500 μl of 25 mM NH4HCO3 and 6 M urea in water. Next, 150 μl of 5% Triton X-100 in water, 50 μl of 10% SDS in water, and 1.5 μl of 0.5 M DTT were added. The samples were heated for 15 min at 65 °C. After briefly cooling, 14 μl of 0.5 M iodoacetamide in water was added, and the sample was left in the dark for 45 min. […] The supernatant was diluted to 4 ml with PBS, and 2 ml of PBS containing 100 μl of 50% streptavidin-agarose resin (Thermo Scientific) was added. Biotinylated proteins within the sample were captured over resin overnight at 4 °C with mild agitation. The resin was first washed with 6 ml of 1% SDS in PBS, and then 7 ml of 0.1 M urea in PBS followed by 10 ml of PBS. The resin underwent a final wash with 0.9 ml of 50 mM Tris-HCl and 1 mM CaCl2 in water (pH 8.0) and then resuspended in 200 μl of 50 mM Tris-HCl, 1 mM CaCl2 in water (pH 8.0), and 2 μg of porcine sequencing grade trypsin (Promega). Samples were digested overnight at 37 °C. Samples were then centrifuged at 2,000 × g for 4 min, and digest supernatant was decanted. Beads were washed in 100 μl of PBS centrifuged at 5,200 × g for 5 min, and the wash was combined with the digest supernatant. To the combined sample, trifluoroacetic acid (TFA) was added to 0.4% (v/v) or until pH <2. The sample was desalted with Oasis C18 10-mg columns (Waters) as described previously ([66]). The eluted sample was dried by speed vac and resuspended in 0.1 M HEPES buffer (pH 8.5). […] Appropriate corresponding TMTsixplex^TM-labeled samples were pooled and dried by speed vac. The combined samples were resuspended in 0.5% acetic acid in water and pH-corrected with acetic acid until pH was <2. 40 μg of protein was desalted with C18 stage tips prepared in-house and dried by speed vac.
Samples were resuspended in 10 mM KH2PO4 (pH 2.6), 30% acetonitrile (v/v) in water, and fractionated by off-line strong cation exchange chromatography prior to mass spectrometry (MS) analysis similar to as reported previously ([66]). The full synaptosome proteome control was prepared similarly without TMTsixplex^TM labeling.
All TMT samples were analyzed with three-stage mass spectrometry (MS3) TMTsixplex^TM quantification workflow as described previously ([34]).

[1] = protein A2AGI3 Neuroligin-3 (Nlgn3)
[2] = protein A2AWI7 Endophilin-B2 (Sh3glb2)
[3] = protein D3Z5T2 Armadillo repeat-containing protein 10 (Armc10)
[4] = protein E9Q3V6 Septin-2 (Sept2)
[5] = protein F7C846 Metaxin-1 (Mtx1)
[6] = protein F8WGD9 1-acyl-sn-glycerol-3-phosphate acyltransferase epsilon (Agpat5)
[7] = protein G3UYZ1 Immunoglobulin superfamily member 8 (Igsf8)
[8] = protein G5E829 Plasma membrane calcium-transporting ATPase 1 (Atp2b1)
[9] = protein H3BL44 Calcium-transporting ATPase (Atp2c1)
[10] = protein O09111 NADH dehydrogenase [ubiquinone] 1 beta subcomplex subunit 11, mitochondrial (Ndufb11)
[11] = protein O35114 Lysosome membrane protein 2 (Scarb2)
[12] = protein O35526 Syntaxin-1A (Stx1a)
[13] = protein O35874 Neutral amino acid transporter A (Slc1a4)
[14] = protein O35963 Ras-related protein Rab-33B (Rab33b)
[15] = protein O55022 Membrane-associated progesterone receptor component 1 (Pgrmc1)

CC(C)c1cccc(C(C)C)c1O [propofol, 2,6-diisopropylphenol, reference compound]
% propofol protection (D3Z2J6 Tmx2): 70% | % propofol protection (E9PUL5 Prrt2): 72% | Log2( Mean 'UV/ UV+propofol') (E9PUL5 Prrt2): 1.75 | % propofol protection (P07724 Alb): 75% | Log2( Mean 'UV/ UV+propofol') (P07724 Alb): 1.84 | % propofol protection (P12787 Cox5a): 76% | % propofol protection (P16332 Mut): 72% | Log2( Mean 'UV/ UV+propofol') (P16332 Mut): 1.79 | Log2( Mean 'UV/ UV+propofol') (P23242 Gja1): 1.15 | Log2( Mean 'UV/ UV+propofol') (P35279 Rab6a): 1.22 | % propofol protection (P51150 Rab7a): 73% | Log2( Mean 'UV/ UV+propofol') (P51150 Rab7a): 1.72 | % propofol protection (P54071 Idh2): 71% | Log2( Mean 'UV/ UV+propofol') (P54071 Idh2): 1.75 | Log2( Mean 'UV/ UV+propofol') (P61620 Sec61a1): 1.22 | % propofol protection (P62812 Gabra1): 70% | Log2( Mean 'UV/ UV+propofol') (P63037 Dnaja1): 1.24 | % propofol protection (P63044 Vamp2): 71% | % propofol protection (P63213 Gng2): 75% | Log2( Mean 'UV/ UV+propofol') (P63213 Gng2): 1.98 | % propofol protection (P97445 Cacna1a): 70% | % propofol protection (Q5SW88 Rab1): 73% | Log2( Mean 'UV/ UV+propofol') (Q5SW88 Rab1): 1.71 | % propofol protection (Q8BLF1 Nceh1): 71% | Log2( Mean 'UV/ UV+propofol') (Q8BLF1 Nceh1): 1.72 | % propofol protection (Q8BXV2 Bri3bp): 75% | Log2( Mean 'UV/ UV+propofol') (Q8BXV2 Bri3bp): 1.93 | % propofol protection (Q8C3X2 Ccdc90b): 75% | Log2( Mean 'UV/ UV+propofol') (Q8C3X2 Ccdc90b): 1.94 | % propofol protection (Q8K1Z0 Coq9): 73% | Log2( Mean 'UV/ UV+propofol') (Q8K1Z0 Coq9): 1.79 | % propofol protection (Q8K221 Arfip2): 70% | % propofol protection (Q8R5J9 Arl6ip5): 75% | Log2( Mean 'UV/ UV+propofol') (Q8R5J9 Arl6ip5): 1.93 | % propofol protection (Q9CQQ7 Atp5f1): 70% | % propofol protection (Q9CQS4 Slc25a46): 76% | Log2( Mean 'UV/ UV+propofol') (Q9CXJ4 Abcb8): 1.18 | % propofol protection (Q9CZS1 Aldh1b1): 75% | Log2( Mean 'UV/ UV+propofol') (Q9CZS1 Aldh1b1): 1.96 | % propofol protection (Q9D2P8 Mobp): 76% | Log2( Mean 'UV/ UV+propofol') (Q9D5T0 Atad1): 1.22 | % propofol protection (Q9D6D0 Slc25a27): 75% | % propofol protection (Q9D6K8 Fundc2): 71% | Log2( Mean 'UV/ UV+propofol') (Q9D6K8 Fundc2): 1.61 | % propofol protection (Q9DAS9 Gng12): 76% | % propofol protection (Q9DC70 Ndufs7): 70% | Log2( Mean 'UV/ UV+propofol') (Q9EP69 Sacm1l): 1.23 | % propofol protection (Q9WV54 Asah1): 72% | Log2( Mean 'UV/ UV+propofol') (Q9WV54 Asah1): 1.72 | Log2( Mean 'UV/ UV+propofol') (Q9Z2I0 Letm1): 1.22 | % propofol protection (Q99J08 Sec14l2): 72% | Log2( Mean 'UV/ UV+propofol') (Q99J08 Sec14l2): 1.67 | Log2( Mean 'UV/ UV+propofol') (Q99JY8 Ppap2b): 1.22 | % propofol protection (Q00915 Rbp1): 75% | Log2( Mean 'UV/ UV+propofol') (Q00915 Rbp1): 1.96 | % propofol protection (Q64133 Maoa): 73% | Log2( Mean 'UV/ UV+propofol') (Q64133 Maoa): 1.78 | % propofol protection [1]: 58% | Log2( Mean 'UV/ UV+propofol') [1]: 1.22 | % propofol protection [2]: 56% | Log2( Mean 'UV/ UV+propofol') [2]: 1.04 | % propofol protection [3]: 55% | Log2( Mean 'UV/ UV+propofol') [3]: 1.05 | % propofol protection [4]: 54% | Log2( Mean 'UV/ UV+propofol') [4]: 1.08 | % propofol protection [5]: 55% | Log2( Mean 'UV/ UV+propofol') [5]: 1.11 | % propofol protection [6]: 57% | Log2( Mean 'UV/ UV+propofol') [6]: 1.12 | % propofol protection [7]: 52% | Log2( Mean 'UV/ UV+propofol') [7]: 0.97 | % propofol protection [8]: 55% | Log2( Mean 'UV/ UV+propofol') [8]: 1.01 | % propofol protection [9]: 51% | Log2( Mean 'UV/ UV+propofol') [9]: 0.88 | % propofol protection [10]: 56% | Log2( Mean 'UV/ UV+propofol') [10]: 1.15 | % propofol protection [11]: 53% | Log2( Mean 'UV/ UV+propofol') [11]: 1.00 | % propofol protection [12]: 57% | Log2( Mean 'UV/ UV+propofol') [12]: 1.15 | % propofol protection [13]: 53% | Log2( Mean 'UV/ UV+propofol') [13]: 1.03 | % propofol protection [14]: 55% | Log2( Mean 'UV/ UV+propofol') [14]: 1.06 | % propofol protection [15]: 51% | Log2( Mean 'UV/ UV+propofol') [15]: 1.00
